Reference: ChEMBL document CHEMBL1201862, “PubChem BioAssay data set” (2004)
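Compound exposure: 48 hours, 5 concentrations, 96-well plates. GI50 is the concentration that inhibits growth by half.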 Calls of active or inactive are those of the source. Rule as the data show it: active = GI50 up to about 1.1 µM and inactive = higher.

Experiments:
Test in all cases: NCI tumour cell line growth inhibition, 48 h
NCI-H226 = system: NCI-H226
LOX IMVI = system: LOX IMVI
UO-31 = system: UO-31
HOP-92 = system: HOP-92
SF-539 = system: SF-539
EKVX = system: EKVX
UACC-257 = system: UACC-257
SNB-19 = system: SNB-19
SK-MEL-5 = system: SK-MEL-5
OVCAR-3 = system: OVCAR-3
CAKI-1 = system: CAKI-1
Malme-3M = system: Malme-3M
IGROV-1 = system: IGROV-1
KM12 = system: KM12
OVCAR-4 = system: OVCAR-4
COLO 205 = system: COLO 205
U-251 = system: U-251

Compound | GI50 (NCI-H226) | GI50 (LOX IMVI) | GI50 (UO-31) | GI50 (HOP-92) | GI50 (SF-539) | GI50 (EKVX) | GI50 (UACC-257) | GI50 (SNB-19) | GI50 (SK-MEL-5) | GI50 (OVCAR-3) | GI50 (CAKI-1) | GI50 (Malme-3M) | GI50 (IGROV-1) | GI50 (KM12) | GI50 (OVCAR-4) | GI50 (COLO 205) | GI50 (U-251)
CC(=O)CCn1[nH]c(=O)c(Cl)c(Cl)c1=O | > 100 µM (inactive) | > 100 µM (inactive) | > 100 µM (inactive) | > 100 µM (inactive) | > 100 µM (inactive) | > 100 µM (inactive) | > 100 µM (inactive) | 15.3 µM (inactive) | > 100 µM (inactive) | > 100 µM (inactive) | 14.3 µM (inactive) | > 100 µM (inactive) | > 100 µM (inactive) | > 100 µM (inactive) | > 100 µM (inactive) | – | –
Cc1cc(N(CCC#N)CCC#N)ccc1/N=N/c1ccc([N+](=O)[O-])cc1 | > 100 µM (inactive) | 25.1 µM (inactive) | > 100 µM (inactive) | 55 µM (inactive) | > 100 µM (inactive) | > 100 µM (inactive) | > 100 µM (inactive) | 22 µM (inactive) | > 10 µM (inactive) | 47.2 µM (inactive) | > 100 µM (inactive) | > 100 µM (inactive) | – | > 100 µM (inactive) | 19.7 µM (inactive) | > 100 µM (inactive) | 18.6 µM (inactive)
O=C(O)[C@@H]1CCCC[C@@H]1C(=O)N(C1CCCCC1)C1CCCCC1 | > 100 µM (inactive) | > 100 µM (inactive) | > 100 µM (inactive) | > 100 µM (inactive) | > 100 µM (inactive) | > 100 µM (inactive) | > 100 µM (inactive) | – | > 100 µM (inactive) | > 100 µM (inactive) | > 100 µM (inactive) | > 100 µM (inactive) | > 100 µM (inactive) | > 100 µM (inactive) | > 100 µM (inactive) | > 100 µM (inactive) | > 100 µM (inactive)
CCOC(=O)C(=O)Nc1c(C)cccc1CC | > 100 µM (inactive) | > 100 µM (inactive) | > 100 µM (inactive) | > 100 µM (inactive) | > 100 µM (inactive) | > 100 µM (inactive) | > 100 µM (inactive) | > 100 µM (inactive) | > 100 µM (inactive) | > 100 µM (inactive) | > 100 µM (inactive) | > 100 µM (inactive) | > 100 µM (inactive) | > 100 µM (inactive) | > 100 µM (inactive) | – | > 100 µM (inactive)
N#CN1CCC=C(c2cc3ccccc3[nH]2)C1 | > 448 µM (inactive) | 230 µM (inactive) | – | 146 µM (inactive) | > 448 µM (inactive) | 270 µM (inactive) | 199 µM (inactive) | > 448 µM (inactive) | 148 µM (inactive) | 92.5 µM (inactive) | 245 µM (inactive) | 442 µM (inactive) | 277 µM (inactive) | 161 µM (inactive) | – | 388 µM (inactive) | 434 µM (inactive)
CC1(C)C(=O)C(C)(C)C1=NNC(N)=S | > 100 µM (inactive) | > 100 µM (inactive) | > 100 µM (inactive) | > 100 µM (inactive) | > 100 µM (inactive) | – | > 100 µM (inactive) | > 100 µM (inactive) | > 100 µM (inactive) | > 100 µM (inactive) | > 100 µM (inactive) | > 100 µM (inactive) | > 100 µM (inactive) | > 100 µM (inactive) | > 100 µM (inactive) | > 100 µM (inactive) | > 100 µM (inactive)
NC(=S)N/N=C(\CC1OC(=O)c2ccccc21)c1ccc(Cl)cc1 (stereo unspecified) | 24.4 µM (inactive) | 27.8 µM (inactive) | 24.9 µM (inactive) | 23.1 µM (inactive) | 20.8 µM (inactive) | – | 46.7 µM (inactive) | 42.7 µM (inactive) | – | 34.6 µM (inactive) | 36.3 µM (inactive) | 30.6 µM (inactive) | 40.3 µM (inactive) | 22 µM (inactive) | 23.1 µM (inactive) | 38.6 µM (inactive) | 22.5 µM (inactive)
O=C1N2Cc3c4ccc5c3CN3C(=O)N6Cc7c(ccc(c7CN1C6(c1ccccc1)C23c1ccccc1)OCCOCCNCCOCCO4)OCCOCCNCCOCCO5 (stereo unspecified) | > 100 µM (inactive) | – | 38.8 µM (inactive) | 18 µM (inactive) | 56.9 µM (inactive) | > 100 µM (inactive) | 16.9 µM (inactive) | > 100 µM (inactive) | 55.2 µM (inactive) | 15 µM (inactive) | 51.6 µM (inactive) | 23.5 µM (inactive) | 65.8 µM (inactive) | 18.5 µM (inactive) | > 100 µM (inactive) | – | 28.9 µM (inactive)
COc1cc(C(=O)CC2(O)C(=O)Nc3c(Cl)cc(Cl)cc32)ccc1O (stereo unspecified) | 40 µM (inactive) | > 100 µM (inactive) | 37.9 µM (inactive) | 23.8 µM (inactive) | – | 94 µM (inactive) | 43.6 µM (inactive) | 76.7 µM (inactive) | 27.6 µM (inactive) | 46.3 µM (inactive) | 56.2 µM (inactive) | > 100 µM (inactive) | – | 78.3 µM (inactive) | 60.8 µM (inactive) | 28.7 µM (inactive) | 69 µM (inactive)
Cc1ccc(S(=O)(=O)C(C#N)c2nc3ccccc3nc2-n2ccnc2)cc1 (stereo unspecified) | 54.8 µM (inactive) | – | > 100 µM (inactive) | > 100 µM (inactive) | > 100 µM (inactive) | > 100 µM (inactive) | > 100 µM (inactive) | > 100 µM (inactive) | > 100 µM (inactive) | > 100 µM (inactive) | – | > 100 µM (inactive) | > 100 µM (inactive) | > 100 µM (inactive) | > 100 µM (inactive) | > 100 µM (inactive) | > 100 µM (inactive)
COCOCC/C=C/C=O | – | > 100 µM (inactive) | > 100 µM (inactive) | > 100 µM (inactive) | > 100 µM (inactive) | > 100 µM (inactive) | > 100 µM (inactive) | > 100 µM (inactive) | > 100 µM (inactive) | > 100 µM (inactive) | – | > 100 µM (inactive) | > 100 µM (inactive) | > 100 µM (inactive) | – | > 100 µM (inactive) | > 100 µM (inactive)
COc1ccccc1NC(=O)C(CC(C(=O)Nc1ccccc1OC)/C(C)=N/Nc1ccc([N+](=O)[O-])cc1[N+](=O)[O-])/C(C)=N/Nc1ccc([N+](=O)[O-])cc1[N+](=O)[O-] (stereo unspecified) | > 100 µM (inactive) | 40.2 µM (inactive) | 27 µM (inactive) | 54.3 µM (inactive) | > 90.2 µM (inactive) | > 88.7 µM (inactive) | > 72.3 µM (inactive) | > 100 µM (inactive) | 31.6 µM (inactive) | 77.4 µM (inactive) | 41 µM (inactive) | > 100 µM (inactive) | 54.5 µM (inactive) | 58.5 µM (inactive) | > 81.3 µM (inactive) | 69 µM (inactive) | > 100 µM (inactive)
CCN(C(=N)C#N)c1ccccc1 | > 100 µM (inactive) | 47.2 µM (inactive) | > 100 µM (inactive) | > 100 µM (inactive) | 13.6 µM (inactive) | > 100 µM (inactive) | > 59.2 µM (inactive) | > 100 µM (inactive) | > 100 µM (inactive) | > 100 µM (inactive) | > 100 µM (inactive) | > 100 µM (inactive) | > 100 µM (inactive) | > 100 µM (inactive) | > 100 µM (inactive) | > 95.3 µM (inactive) | 65.9 µM (inactive)
O=c1c2ccccc2nc2n1-c1ccccc1SC2 | – | > 100 µM (inactive) | 48.2 µM (inactive) | 55.1 µM (inactive) | > 100 µM (inactive) | 25.5 µM (inactive) | 39.4 µM (inactive) | > 100 µM (inactive) | 30.1 µM (inactive) | 64.9 µM (inactive) | > 100 µM (inactive) | 37.8 µM (inactive) | 66.5 µM (inactive) | 29.5 µM (inactive) | 64.3 µM (inactive) | 92.9 µM (inactive) | 84.7 µM (inactive)
C=CC1(C)/C(=N\O)C(C)(CC)C(=O)N1O (stereo unspecified) | – | > 100 µM (inactive) | > 100 µM (inactive) | > 100 µM (inactive) | > 100 µM (inactive) | > 100 µM (inactive) | > 100 µM (inactive) | > 100 µM (inactive) | > 100 µM (inactive) | > 100 µM (inactive) | > 100 µM (inactive) | > 100 µM (inactive) | > 100 µM (inactive) | > 100 µM (inactive) | > 100 µM (inactive) | > 100 µM (inactive) | > 100 µM (inactive)
CNS(=O)(=O)NNS(=O)(=O)c1ccc(C)cc1 | – | – | > 100 µM (inactive) | > 100 µM (inactive) | > 100 µM (inactive) | > 100 µM (inactive) | > 100 µM (inactive) | > 100 µM (inactive) | > 100 µM (inactive) | > 100 µM (inactive) | > 100 µM (inactive) | > 100 µM (inactive) | > 100 µM (inactive) | > 100 µM (inactive) | > 100 µM (inactive) | > 100 µM (inactive) | –
Cc1cccc(C)c1NC(=O)CCCC(=O)CC(=O)/C=C/c1ccccc1 | – | > 100 µM (inactive) | > 100 µM (inactive) | > 100 µM (inactive) | > 100 µM (inactive) | – | > 100 µM (inactive) | > 100 µM (inactive) | > 100 µM (inactive) | > 100 µM (inactive) | > 100 µM (inactive) | > 100 µM (inactive) | > 100 µM (inactive) | > 100 µM (inactive) | > 100 µM (inactive) | > 100 µM (inactive) | > 100 µM (inactive)
Cc1cc(C2CCCCC2)n(O)c(=O)c1 [CICLOPIROX OLAMINE] | – | 11.9 µM (inactive) | 6.32 µM (inactive) | 0.605 µM (active) | 5.52 µM (inactive) | 4.04 µM (inactive) | 1.62 µM (inactive) | 11.6 µM (inactive) | 10.4 µM (inactive) | – | – | 15.7 µM (inactive) | 3.46 µM (inactive) | 4.66 µM (inactive) | – | 39.4 µM (inactive) | 0.498 µM (active)
